Data: patent US12023335B2, “Method for treating pancreatic cancer” (PTC THERAPEUTICS, INC., priority 2018, dated 2024)
“Also recorded” adds a separate entry of the source.

Columns and labels:
Aspc1 cells = test: Active caspase 3 apoptosis flow cytometry in Aspc1 cells; type: cell-based, human; settings: 24, 48, 72 hours, relative to vehicle (FIGS. 3a, 3b)
Experimental: For active Caspase-3 (ActCasp3) staining, the Caspase 3 (active) FITC Staining Kit (Abcam, ab65613) was used according to manufacturer's instructions. Cells were seeded in 12-well plates such that ˜16 hours later they would be approximately 50-60% confluent. […] Samples were analyzed on a BD LSR II™ and analyzed by FlowJo software. (FIG. 3a and FIG. 3b)

P-glycoprotein = molecular target: T1, P-glycoprotein (Homo sapiens, UniProt P08183); test: P-glycoprotein substrate activity experiment (CC50 ratio MDCK-P-gp vs MDCK-WT); type: in vitro ADME; settings: 72 hours, CellTiter-Glo (FIG. 4b)
T1 construct: host or cells: MDCKII-mdr1 (canine kidney MDCKII cells; MDCKII-wt as control)
Experimental: MDCKII-mdr1 and MDCKII-wt cells were purchased from the Netherlands Cancer Institute, NKI-AVL. The cells were cultivated in Dulbecco's modified essential medium (DMEM), supplemented with 10% FBS and 1% Penn-Strep, and used between passage 3-9. Cells were seeded at a density of 3×10^3 cells/well in 96-well tissue culture treated plates. After 4 hours to allow cells to attach, cells were treated with test compound in the presence or absence of the P-glycoprotein inhibitor Valspodar. The plates were incubated at 37° C., 5% CO2 for 72 hours and ATP was measured vialuminescence using CellTiter-Glo® reagent (Promega). (FIG. 4b)

[1] = Compound 1 levels in plasma, quadriceps and PDA tissue of KPC mice; type: in vivo; settings: 24 hours after single oral dose 10 mg/kg (FIG. 5a)
Experimental: Blood plasma and tissue samples to be used for analysis were immediately frozen on dry ice and stored at −80° C. until analysis. Concentrations of Compound 1 in samples were quantified using high-performance liquid chromatography with tandem mass spectrometry (LC-MS/MS). Compound 1 and its internal standard (deuterated Compound 1) were recovered by protein precipitation extraction from samples.
For the pharmacokinetic study that assessed plasma, quadriceps muscle, and tumor tissue following a single dose of Compound 1 the assay conditions were as follows (FIG. 5a):
Plasma: A standard curve was made to cover concentrations between 0.002 ug/mL and 6.0 ug/mL. the LLOQ for Compound 1 (either version) in plasma was 0.001 μg/mL
Quadriceps muscle: A standard curve was made to cover concentrations between 0.001 μg/g wet tissue and 3.0 μg/g wet tissue. The LLOQ for Compound 1 (either version) was 0.01 μg/g wet tissue.
Tumor tissue: A standard curve was made to cover concentrations between 0.001 μg/g wet tissue and 3.0 μg/g wet tissue. The LLOQ for Compound 1 (either version) was 0.02 μg/g wet tissue.

CYCLIN B1 = test: Western blot for CYCLIN B1 on tumors from KPC mice; type: in vivo; settings: 10 mg/kg; biopsy 48 hours before first dose vs necropsy 24 hours after third dose (FIGS. 5b, 5c)
Experimental: Western blotting was carried out on lysates isolated from treated cells. Cells were lysed using RIPA buffer (50 mM Tris, pH 7.4, 150 mM NaCl, 1% Nonidet P-40, 0.1% SDS, 0.5% deoxycholate) supplemented with cOmplete™ EDTA-free Protease Inhibitor Cocktail (Sigma, 11836170001) and Halt™ Phosphatase Inhibitor Cocktail (ThermoFisher, 78420). Lysates were quantified using the Pierce BCA Protein Assay Kit (ThermoFisher, 23227), diluted in SDS sample buffer, resolved by SDS-PAGE (15-30 μg/sample), and transferred onto PVDF membranes. Membranes were blocked with 5% w/v nonfat dry milk in TBS-T (0.1% Tween20) and primary antibodies were incubated overnight at 4° C., diluted in 5% BSA in TBS-T at the indicated concentrations. HRP-conjugated secondary antibodies were incubated in blocking buffer for 1 hour at room temperature before detection using Super Digital-ECL™ substrate solution (Kindle Biosciences, R1002). (FIG. 5b, FIG. 10a and FIG. 11b)

[2] = system: J1002VEH and J1002TAM cells; test: Viability and dose response of J1002VEH and J1002TAM cells (AlamarBlue); type: cell-based, mouse
Experimental: For proliferation curves, cells were plated in 96-well plates (Corning, 3603) and allowed to seed overnight. Replicate plates were plated for each time point since viability measurements were an endpoint procedure. The following day, cells were treated with Compound at indicated concentrations and treated with DMSO at the highest used concentration (always below 0.003%). Cells were treated for 96 hours, and viability was determined every 24 hours using AlamarBlue reagent (BioRad, BUF012B). Briefly, 10 μL of AlamarBlue was added to each well (100 μL), mixed briefly, and allowed to incubate at 37° C. and 5% CO2 for 4 hours. Following incubation, fluorescence was measured on a Promega multimode microplate reader. For analysis, background levels were subtracted from raw results, which were then normalized to be represented as a fold change compared to DMSO-treated cells on Day 0. All assays were carried out in at least triplicate with 4-8 technical replicates per treatment group, per experiment. (FIG. 1a and FIG. 10b)
For dose response curves, cells were plated in 96-well plates (Corning, 3603) and allowed to seed overnight. The following day, cells were treated with Compound 1. […] Cells were treated for 72 hours and then viability was determined using AlamarBlue reagent (BioRad, BUF012B). […] Following incubation, fluorescence was measured on a Promega multimode microplate reader. […]

T1 sequence (P08183 whole entry): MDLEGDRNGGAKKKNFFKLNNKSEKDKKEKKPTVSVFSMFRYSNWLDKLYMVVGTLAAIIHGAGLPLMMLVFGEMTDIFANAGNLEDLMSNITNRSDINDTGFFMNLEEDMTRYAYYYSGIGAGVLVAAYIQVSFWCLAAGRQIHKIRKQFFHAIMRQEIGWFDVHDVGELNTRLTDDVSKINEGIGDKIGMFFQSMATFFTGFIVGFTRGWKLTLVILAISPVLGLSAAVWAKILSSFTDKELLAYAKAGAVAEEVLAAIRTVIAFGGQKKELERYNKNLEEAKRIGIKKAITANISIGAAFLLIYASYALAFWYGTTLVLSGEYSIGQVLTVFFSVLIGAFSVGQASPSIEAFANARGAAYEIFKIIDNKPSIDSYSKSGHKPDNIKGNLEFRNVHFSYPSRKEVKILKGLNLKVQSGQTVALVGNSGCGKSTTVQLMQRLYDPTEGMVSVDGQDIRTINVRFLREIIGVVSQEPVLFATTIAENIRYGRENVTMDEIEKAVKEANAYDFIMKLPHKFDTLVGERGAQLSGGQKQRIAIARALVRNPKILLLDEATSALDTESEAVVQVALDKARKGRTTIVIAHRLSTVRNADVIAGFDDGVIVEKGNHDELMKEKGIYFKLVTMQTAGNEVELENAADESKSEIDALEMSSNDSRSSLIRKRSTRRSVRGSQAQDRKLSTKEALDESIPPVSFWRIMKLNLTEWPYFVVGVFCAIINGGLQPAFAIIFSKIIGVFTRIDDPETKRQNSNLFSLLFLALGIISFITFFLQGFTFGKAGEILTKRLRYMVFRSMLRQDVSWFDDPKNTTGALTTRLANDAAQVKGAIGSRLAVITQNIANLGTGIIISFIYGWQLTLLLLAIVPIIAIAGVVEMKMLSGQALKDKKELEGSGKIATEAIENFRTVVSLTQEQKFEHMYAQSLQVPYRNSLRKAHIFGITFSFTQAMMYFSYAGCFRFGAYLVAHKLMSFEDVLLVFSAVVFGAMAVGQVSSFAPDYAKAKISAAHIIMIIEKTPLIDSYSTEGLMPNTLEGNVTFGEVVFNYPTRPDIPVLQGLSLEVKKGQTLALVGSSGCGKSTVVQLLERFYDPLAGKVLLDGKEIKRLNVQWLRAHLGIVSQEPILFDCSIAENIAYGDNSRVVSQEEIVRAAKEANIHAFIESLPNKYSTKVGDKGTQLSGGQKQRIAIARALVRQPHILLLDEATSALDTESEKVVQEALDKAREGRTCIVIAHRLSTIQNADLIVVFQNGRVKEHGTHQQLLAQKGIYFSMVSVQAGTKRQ

Question: With `Cc1nc2ccc(F)cc2n1-c1nc(N)c(F)c(Nc2ccc(C(F)(F)F)cc2)n1` [Compound 1, 5-fluoro-2-(6-fluoro-2-methyl-1H-benzo[d]imidazol-1-yl)-N4-[4-(trifluoromethyl)phenyl]pyrimidine-4,6-diamine] as the molecule, how does the “total apoptotic Aspc1 cells (active caspase 3+)” value (Aspc1 cells) read?
Answer: time-dependent increase in cell biomarkers that indicate a corresponding increase in cell apoptosis

Question: What about the “PGP substrate activity (ratio of CC50 values MDCK-P-gp vs MDCK-WT)” value (P-glycoprotein) of the same molecule?
Answer: lack of P-glycoprotein (PGP) substrate activity; also recorded: do not function as a PGP substrate

Question: What about the “distribution into PDA tumor tissue” value [1] of the same molecule?
Answer: effective biodistribution into tumor tissues; also recorded: distributes into PDA tissues

Question: And the “CYCLIN B1 normalized to VINCULIN in tumors” value (CYCLIN B1)?
Answer: consistent reduction in Cyclin B1 relative to Vinculin

Question: And the “relative viability of J1002VEH and J1002TAM cells” value ([2]; 0.1 μM or 1.0 μM over 96 hours (FIG. 10b))?
Answer: dose and time-dependent decrease in viability of cells dependent on BMI-1 protein expression

Question: And the “dose response in J1002VEH and J1002TAM cells” value ([2]; 72 hours (FIG. 10c))?
Answer: sub-M activity toward reduction in BMI-1 protein expression
